Test: molar heat capacity at constant pressure
Conditions: 101.33 kPa, Crystal 2, Vacuum adiabatic calorimetry

Cc1ccc(-c2ccccc2)cc1 [4-methylbiphenyl]
Conditions	molar heat capacity at constant pressure [J/K/mol]
8.42 K	3.698
8.7 K	3.996
8.96 K	4.244
9.47 K	4.835
9.97 K	5.433
10.28 K	5.778
10.67 K	6.273
11.06 K	6.777
11.44 K	7.338
11.83 K	7.812
12.21 K	8.286
12.59 K	8.722
12.96 K	9.194
13.35 K	9.76
13.72 K	10.44
14.09 K	10.74
14.46 K	11.37
14.83 K	11.81
15.2 K	12.22
15.56 K	12.8
15.92 K	13.35
16.28 K	13.95
16.65 K	14.46
17.01 K	14.64
17.37 K	15.38
17.72 K	16.09
18.08 K	16.37
18.44 K	17.11
18.79 K	17.51
19.88 K	19.13
20.58 K	20.29
21.36 K	21.32
22.14 K	22.38
22.91 K	23.6
23.69 K	24.61
24.46 K	25.76
25.23 K	26.8
26 K	27.57
26.76 K	28.86
27.53 K	30.07
28.29 K	30.9
29.05 K	32.05
29.81 K	33.03
30.57 K	34.28
31.33 K	35.24
32.09 K	36.41
32.86 K	36.83
33.62 K	38.31
34.37 K	39.14
35.13 K	39.93
35.88 K	41.05
36.64 K	41.53
37.39 K	42.34
38.14 K	43.78
38.9 K	44.06
39.65 K	45.4
40.4 K	45.99
41.15 K	46.64
41.9 K	47.81
42.65 K	48.69
43.4 K	49.76
44.15 K	50.64
44.91 K	50.57
45.66 K	51.28
46.41 K	52.33
47.16 K	53.31
47.91 K	53.96
48.65 K	55.09
49.4 K	56.25
50.15 K	56.83
50.9 K	57.26
51.65 K	58.12
52.4 K	59.37
53.15 K	59.9
53.9 K	60.72
54.64 K	61.66
55.39 K	62.7
56.14 K	63.64
56.89 K	63.48
57.64 K	64.25
58.39 K	64.5
59.13 K	64.98
59.88 K	65.47
60.63 K	66.03
61.37 K	65.92
62.12 K	66.39
62.86 K	67.01
63.6 K	67.59
64.35 K	67.75
65.09 K	68.24
65.83 K	68.99
66.57 K	69.46
67.32 K	69.91
68.06 K	70.28
68.8 K	70.75
69.54 K	72.08
70.28 K	72.22
71.18 K	72.29
72.22 K	73.13
73.27 K	74.21
74.32 K	74.62
75.37 K	75.51
76.42 K	75.54
77.47 K	76.16
78.51 K	77.53
78.8 K	78.32
79.56 K	77.92
80.6 K	79.11
81.65 K	79.67
82.17 K	81.46
83.21 K	81.22
84.78 K	82.63
85.83 K	84.24
87.34 K	85.25
88.37 K	86.4
89.4 K	87.09
90.43 K	87.85
91.47 K	88.19
92.5 K	89.19
93.53 K	89.62
94.55 K	90.59
95.58 K	91.13
96.61 K	92.3
97.64 K	93.83
98.66 K	92.61
99.69 K	94.23
100.72 K	95.15
101.74 K	95.13
102.77 K	95.55
104.82 K	96.61
105.84 K	97.41
106.86 K	98.57
107.88 K	99.36
108.9 K	99.57
109.93 K	100.46
110.95 K	100.63
111.97 K	100.49
112.99 K	102.03
114.01 K	102.56
115.02 K	103.36
116.04 K	104.67
117.06 K	104.77
118.08 K	104.33
119.1 K	105.95
120.12 K	106.87
121.14 K	106.67
122.15 K	107.47
123.17 K	108.38
124.18 K	108.38
125.2 K	108.94
126.21 K	110.22
127.23 K	110.82
128.23 K	111.43
129.25 K	111
130.26 K	112.24
131.27 K	113.68
132.28 K	113.17
133.29 K	114.17
134.3 K	115.39
135.31 K	115.98
136.32 K	115.79
137.33 K	115.95
138.33 K	116.76
139.34 K	118.07
140.34 K	119.05
141.35 K	119.04
142.35 K	119.96
143.36 K	120
144.35 K	120.48
145.36 K	120.67
146.36 K	122
147.36 K	122.17
148.36 K	124.22
149.36 K	124.87
150.36 K	125.07
151.36 K	125.72
153.66 K	127.07
154.92 K	127.26
155.92 K	127.72
156.91 K	128.68
157.91 K	129.05
158.9 K	129.98
159.89 K	130.91
162.88 K	133.43
163.87 K	132.72
164.87 K	133.55
165.85 K	133.77
166.84 K	134.91
167.83 K	135.89
169.79 K	137.42
170.78 K	137.22
171.76 K	137.79
172.74 K	138.45
173.73 K	139.11
174.71 K	140.53
175.69 K	140.7
176.68 K	141.47
177.66 K	142.43
178.64 K	143.15
179.62 K	143.76
180.6 K	144.25
181.58 K	145.06
182.56 K	146.17
183.54 K	146.07
184.52 K	146.77
185.47 K	148
186.45 K	148.42
187.42 K	148.71
188.4 K	149.77
189.37 K	150.31
190.34 K	151.29
191.32 K	152.46
192.29 K	153.07
193.26 K	153.26
194.23 K	154.48
195.2 K	154.92
196.17 K	155.18
197.14 K	156.43
198.1 K	156.66
199.07 K	156.85
